Experimental data from patent US9206167B2, “Piperazine-substituted benzothiophenes for treatment of mental disorders” (Otsuka Pharmaceutical Co., Ltd., priority 2005, dated 2015).

Columns and labels:
[1] = target: Dopamine D2 receptor (Rattus norvegicus (Rat), UniProt P61169); assay: Dopamine D2 receptor binding assay ([3H]-raclopride, rat corpus striatum membrane); conditions: Ki from IC50 by Cheng-Prussoff formula
Procedure: Pharmacological Test 1 1) Dopamine D2 Receptor Binding Assay
Wistar male rats were decapitated, the brain was retrieved immediately and corpus striatum was taken out. It was homogenized in 50 mM tris(hydroxymethyl)aminomethane (Tris)-hydrochloric acid buffer (pH 7.4) of a volume 50 times of the weight of the tissue using a homogenizer with a high-speed rotating blade, and centrifuged at 4° C., 48,000×g for 10 minutes. The obtained precipitate was suspended again in the above-described buffer of a volume 50 times of the weight of the tissue and after incubated at 37° C. for 10 minutes, centrifuged in the above-described condition. The obtained precipitate was suspended in 50 mM (Tris)-hydrochloric acid buffer (containing 120 mM NaCl, 5 mM KCl, 2 mM CaCl2, 1 mM MgCl2, pH 7.4) of a volume 25 times of the weight of the tissue and preserved by freezing at −85° C. till it was used for binding assay as a membrane specimen.
The binding assay was performed using 40 μl of the membrane specimen, 20 μl of [^3H]-raclopride (final concentration 1 to 2 nM), 20 μl of a test drug and 50 mM Tris-hydrochloric acid buffer (containing 120 mM NaCl, 5 mM KCl, 2 mM CaCl2, 1 mM MgCl2, pH 7.4) so that the total amount was 200 μl (final dimethylsulfoxide concentration 1%). The reaction was performed at room temperature for 1 hour and terminated by conducting suction filtration with a cell harvester on a glass fiber filter plate. The filter plate made of glass fiber was washed with 50 mM Tris-hydrochloric acid buffer (pH 7.4), and after dried, a microplate liquid scintillation cocktail was added and the radioactivity was measured with a microplate scintillation counter. Radioactivity in the presence of 10 μM (+)-butaclamol hydrochloride was assumed as nonspecific binding.
(§1) IC50 value was calculated from concentration-dependent reaction using a non-linear analysis program. Ki value was calculated from IC50 value using Cheng-Prussoff formula.

[2] = target: Serotonin 5-HT2A receptor (Rattus norvegicus (Rat), UniProt P14842); assay: Serotonin 5-HT2A receptor binding assay ([3H]-Ketanserin, rat frontal cortex membrane); conditions: Ki from IC50 by Cheng-Prussoff formula
Procedure: 2) Serotonin 5-HT2A Receptor Binding Assay
The assay was performed according to the method by Leysen J E et al. (Leysen J E, Niemegeers C J E, Van Nueten J M and Laduron P M. [3H] Ketanserin (R 41 468), a selective 3H-ligand for serotonin 2 receptor binding sites. Mol. Pharmacol., 1982, 21: 301-314).
Wistar male rats were decapitated, the brain was retrieved immediately and frontal cortex was taken out. It was homogenized in 0.25 M sucrose of a volume 10 times of the weight of the tissue using a Teflon glass homogenizer, and centrifuged at 4° C., 1,000×g for 10 minutes. The obtained supernatant was transferred to another centrifuge tube and suspended in 0.25 M sucrose of a volume 5 times of the weight of the tissue and the precipitate was centrifuged in the above-described condition. The obtained supernatant was combined with the supernatant obtained above and adjusted to a volume 40 times of the weight of the tissue with 50 mM Tris-hydrochloric acid buffer (pH 7.4), and centrifuged at 4° C., 35,000×g for 10 minutes. The obtained precipitate was suspended again in the above-described buffer of a volume 40 times of the weight of the tissue and centrifuged in the above-described condition. The obtained precipitate was suspended in the above-described buffer of a volume 20 times of the weight of the tissue and preserved by freezing at −85° C. till it was used for binding assay as a membrane specimen.
The binding assay was performed using 40 μl of the membrane specimen, 20 μl of [^3H]-Ketanserin (final concentration 1 to 3 nM), 20 μl of a test drug and 50 mM Tris-hydrochloric acid buffer (pH 7.4) so that the total amount was 200 μl (final dimethylsulfoxide concentration 1%). The reaction was performed at 37° C. for 20 minutes and terminated by conducting suction filtration with a cell harvester on a glass fiber filter plate.
The filter plate made of glass fiber was washed with 50 mM Tris-hydrochloric acid buffer (pH 7.4), and after dried, a microplate liquid scintillation cocktail was added and the radioactivity was measured with a microplate scintillation counter. Radioactivity in the presence of 10 μM spiperone was assumed as nonspecific binding.
as §1

[3] = target: Serotonin (5-HT) uptake (Rattus norvegicus (Rat), UniProt P31652); assay: Serotonin (5-HT) uptake inhibitory activity by rat brain synaptosome; format: biochemical; conditions: test compound 300 nM, rat frontal cortex synaptosome; read-out: Serotonin uptake inhibitory ratio (%) (300 nM)
Procedure: Measurement of Serotonin (5-HT) Uptake Inhibitory Activity of a Test Compound by Rat Brain Synaptosome
Wistar male rats were decapitated, the brain was retrieved and frontal cortex was dissected out, and it was homogenized in 0.32 M sucrose solution of a weight 20 times of the weight of the tissue using a Potter type homogenizer. The homogenate was centrifuged at 4° C., 1,000×g for 10 minutes, the obtained supernatant was further centrifuged at 4° C., 20,000×g for 20 minutes, and the pellet was suspended in an incubation buffer (20 mM Hepes buffer (pH 7.4) containing 10 mM glucose, 145 mM sodium chloride, 4.5 mM potassium Chloride, 1.2 mM magnesium chloride, 1.5 mM calcium chloride), which was used as crude synaptosome fraction.
5-HT uptake reaction was performed in a volume of 200 μl using a 96-well round bottom plate and pargyline (final concentration 10 μM) and sodium ascorbate (final concentration 0.2 mg/ml) were contained in the incubation buffer upon reaction and used.
Incubation buffer (total counting), non-labeled 5-HT (final concentration 10 μM, non-specific counting) and the diluted test compound (final concentration 300 nM) were added to each well. One-tenth quantity of the final volume of the synaptosome fraction was added and after preincubated at 37° C. for 10 minutes, tritium labeled 5-HT solution (final concentration 8 nM) was added and uptake reaction was started at 37° C. The uptake time was 10 minutes and the reaction was terminated by vacuum filtration through a 96-well fiber glass filter paper plate, and after the filter paper was washed with cold normal saline, it was dried enough and Microscint0 (Perkin-Elmer) was added to the filter and remaining radioactivity on the filter was measured.

[4] = target: Human recombinant dopamine D2 receptor (Homo sapiens (Human), UniProt P14416); conditions: forskolin-stimulated D2 expressing CHO/DHFR(-) cells, control drug
Procedure: Partial agonistic activity on dopamine D2 receptor was evaluated by quantitatively determining cyclic AMP production inhibitory effect of a test compound in dopamine D2 receptor expression cells in which adenosine 3′,5′-cyclic monophosphate (cyclic AMP) production was induced by forskolin stimulation.
Human recombinant dopamine D2 receptor expressing Chinese hamster ovary/DHFR(−) cells were cultured in a culture medium (Iscove's Modified Dulbecco's Medium (IMDM culture medium), 10% fetal bovine serum, 50 I.U./ml penicillin, 50 μg/ml streptomycin, 200 μg/ml geneticin, 0.1 mM sodium hypoxanthine, 16 μM thymidine) at 37° C. and 5% carbon dioxide condition. Cells were seeded at 10^4 cells/well on a 96-well microtiter plate coated with poly-L-lysine and grown under the same condition for 2 days. Each well was washed with 100 μl of a culture medium (IMDM culture medium, 0.1 mM sodium hypoxanthine, 16 μM thymidine).

Sequence of Dopamine D2 receptor (P61169 whole entry): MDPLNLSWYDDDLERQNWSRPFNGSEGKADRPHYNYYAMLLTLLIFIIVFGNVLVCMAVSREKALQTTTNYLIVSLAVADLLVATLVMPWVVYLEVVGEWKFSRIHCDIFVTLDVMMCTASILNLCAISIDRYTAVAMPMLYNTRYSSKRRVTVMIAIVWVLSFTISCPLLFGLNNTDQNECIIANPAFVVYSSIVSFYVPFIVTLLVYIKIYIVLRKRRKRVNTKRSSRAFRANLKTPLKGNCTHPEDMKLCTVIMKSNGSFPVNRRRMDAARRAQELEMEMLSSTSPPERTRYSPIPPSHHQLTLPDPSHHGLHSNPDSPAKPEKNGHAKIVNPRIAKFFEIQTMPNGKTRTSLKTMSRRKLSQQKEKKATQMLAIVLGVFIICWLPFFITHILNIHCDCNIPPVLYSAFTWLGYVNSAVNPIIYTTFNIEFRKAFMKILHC
Sequence of Serotonin 5-HT2A receptor (P14842 whole entry): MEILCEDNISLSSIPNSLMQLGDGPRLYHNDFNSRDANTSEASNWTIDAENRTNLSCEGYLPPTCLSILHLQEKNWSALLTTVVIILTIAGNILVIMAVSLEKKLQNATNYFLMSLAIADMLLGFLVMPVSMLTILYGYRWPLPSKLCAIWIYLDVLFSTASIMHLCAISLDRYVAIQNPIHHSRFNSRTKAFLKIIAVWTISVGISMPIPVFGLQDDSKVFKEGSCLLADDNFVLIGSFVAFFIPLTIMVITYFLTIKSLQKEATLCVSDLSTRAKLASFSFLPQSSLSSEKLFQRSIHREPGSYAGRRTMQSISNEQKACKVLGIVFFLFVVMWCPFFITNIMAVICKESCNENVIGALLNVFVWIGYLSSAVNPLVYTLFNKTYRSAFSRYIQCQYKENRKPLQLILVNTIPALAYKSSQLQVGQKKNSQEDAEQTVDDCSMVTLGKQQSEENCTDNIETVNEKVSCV
Sequence of Serotonin (5-HT) uptake (P31652 whole entry): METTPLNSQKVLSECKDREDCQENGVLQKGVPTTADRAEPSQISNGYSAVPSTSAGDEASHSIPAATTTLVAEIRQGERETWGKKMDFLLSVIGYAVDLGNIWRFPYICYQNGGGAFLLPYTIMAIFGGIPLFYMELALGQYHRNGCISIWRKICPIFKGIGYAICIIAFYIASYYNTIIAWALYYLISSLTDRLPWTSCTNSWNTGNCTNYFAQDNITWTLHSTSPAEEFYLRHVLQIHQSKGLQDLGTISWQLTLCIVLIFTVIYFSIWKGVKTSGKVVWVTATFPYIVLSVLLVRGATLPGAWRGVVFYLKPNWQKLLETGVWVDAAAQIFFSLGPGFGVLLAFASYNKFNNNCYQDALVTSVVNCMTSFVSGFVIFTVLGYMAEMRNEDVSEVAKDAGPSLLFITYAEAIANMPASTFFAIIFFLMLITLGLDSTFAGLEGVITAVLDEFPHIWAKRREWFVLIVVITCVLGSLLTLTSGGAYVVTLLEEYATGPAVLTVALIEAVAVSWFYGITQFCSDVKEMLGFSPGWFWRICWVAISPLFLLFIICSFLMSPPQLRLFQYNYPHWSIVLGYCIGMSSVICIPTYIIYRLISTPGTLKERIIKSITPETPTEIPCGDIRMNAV
Sequence of Human recombinant dopamine D2 receptor (P14416 whole entry): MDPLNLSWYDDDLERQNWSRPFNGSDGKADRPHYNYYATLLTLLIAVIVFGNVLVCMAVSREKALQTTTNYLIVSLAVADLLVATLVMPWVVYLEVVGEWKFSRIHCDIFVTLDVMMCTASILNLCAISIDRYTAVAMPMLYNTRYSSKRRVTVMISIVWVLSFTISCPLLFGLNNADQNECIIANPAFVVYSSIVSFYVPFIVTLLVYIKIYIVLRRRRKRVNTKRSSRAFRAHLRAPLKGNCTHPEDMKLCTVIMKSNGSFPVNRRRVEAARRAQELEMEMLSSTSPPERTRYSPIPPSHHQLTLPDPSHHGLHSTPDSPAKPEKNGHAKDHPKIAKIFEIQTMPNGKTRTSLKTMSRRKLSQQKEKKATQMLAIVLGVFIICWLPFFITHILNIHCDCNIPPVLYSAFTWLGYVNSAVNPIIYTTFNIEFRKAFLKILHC

Structure (SMILES)	Ki [1]	Ki [2]	inhibition at 0.3 µM [3]	quantity of cyclic AMP as the maximum activity (well without test compound = 100%) [4]
Cc1cc2ccc(OCCCN3CCN(c4cccc5sccc45)CC3)cc2[nH]c1=O [Example 5, 7-[3-(4-benzo[b]thiophen-4-yl-piperazin-1-yl)propoxy]-3-methyl-1H-quinolin-2-one]	0.6 nM	6.4 nM	89.1%	–
O=c1ccc2ccc(OCCCN3CCN(c4cccc5sccc45)CC3)cc2[nH]1 [Example 7, 7-[3-(4-benzo[b]thiophen-4-yl-piperazin-1-yl)propoxy]-1H-quinolin-2-one]	0.5 nM	4 nM	91%	–
O=C1CCc2ccc(OCCCN3CCN(c4cccc5sccc45)CC3)cc2N1 [Example 10, 7-[3-(4-benzo[b]thiophen-4-yl-piperazin-1-yl)propoxy]-3,4-dihydro-1H-quinolin-2-one]	0.4 nM	3 nM	92.6%	–
O=C1CCc2ccc(OC/C=C/CN3CCN(c4cccc5sccc45)CC3)cc2N1 [Example 15, 7-[4-(4-benzo[b]thiophen-4-yl-piperazin-1-yl)-(E)-2-butenyloxy]-3,4-dihydro-1H-quinolin-2-one]	0.2 nM	3.3 nM	87.2%	–
CC1CC(=O)Nc2cc(OCCCCN3CCN(c4cccc5sccc45)CC3)ccc21 (stereo not shown) [Example 16, 7-[4-(4-benzo[b]thiophen-4-yl-piperazin-1-yl)butoxy]-4-methyl-3,4-dihydro-1H-quinolin-2-one]	0.7 nM	7 nM	86.7%	–
O=C1CCc2cc(OCCCCN3CCN(c4cccc5sccc45)CC3)ccc2N1 [Example 20, 6-[4-(4-benzo[b]thiophen-4-yl-piperazin-1-yl)butoxy]-3,4-dihydro-1H-quinolin-2-one]	1.5 nM	3.3 nM	92.8%	–
O=C1c2ccccc2CCN1CCCCCN1CCN(c2cccc3sccc23)CC1 [Example 24, 2-[5-(4-benzo[b]thiophen-4-yl-piperazin-1-yl)pentyl]-3,4-dihydro-2H-isoquinolin-1-one]	5 nM	2.3 nM	97.5%	–
CN1CCc2cc(OCCCN3CCN(c4cccc5sccc45)CC3)ccc2C1=O [Example 26, 6-[3-(4-benzo[b]thiophen-4-yl-piperazin-1-yl)propoxy]-2-methyl-3,4-dihydro-2H-isoquinolin-1-one]	3.5 nM	4.4 nM	92%	–
CCN1CCc2cc(OCCCN3CCN(c4cccc5sccc45)CC3)ccc2C1=O [Example 27, 6-[3-(4-benzo[b]thiophen-4-yl-piperazin-1-yl)propoxy]-2-ethyl-3,4-dihydro-2H-isoquinolin-1-one]	4.9 nM	4.1 nM	94%	–
O=c1c2ccccc2ccn1CCCCN1CCN(c2cccc3sccc23)CC1 [Example 34, 2-[4-(4-benzo[b]thiophen-4-yl-piperazin-1-yl)butyl]-2H-isoquinolin-1-one]	1.2 nM	1.5 nM	94.2%	–
O=c1[nH]ccc2cc(OCCCN3CCN(c4cccc5sccc45)CC3)ccc12 [Example 40, 6-[3-(4-benzo[b]thiophen-4-yl-piperazin-1-yl)propoxy]-2H-isoquinolin-1-one]	4.8 nM	5.1 nM	91.6%	–
NCCc1ccc(O)c(O)c1 [dopamine]	–	–	–	about 10%
